Laboratory results published in patent publication US9192585B2, “Inhibitors of cognitive decline” (Cognition Therapeutics, Inc., priority 2009, dated 2015).

What was measured:
[1] = test system: Abeta oligomer effects on membrane trafficking in primary rat neurons; test: Primary neuron-based functional screening assay, membrane trafficking (Example EE); type: cell-based; conditions: for block of Abeta oligomer effects (decrease of intracellular formazan-filled vesicles): added to cultures prior to oligomer addition, FIG. 2A
From the text: Primary rat neurons grown for at least 3 weeks in vitro were chosen as the basis for this screening assay. […] More complex systems such as acute or organotypic brain slices are very useful but not amenable to high throughput screening. […] For this reason, primary neuronal cultures were chosen because of their ability to be used in high throughput screens and fidelity to what occurs in vivo.
The MTT assay can be used as a measure of toxicity in cultures. Yellow tetrazolium salts were endocytosed by cells and reduced to insoluble purple formazan in the endosomal pathway. The level of purple formazan was a reflection of the number of actively metabolizing cells in culture, and reduction in the amount of formazan was taken as a measure of cell death or metabolic toxicity in culture.
The exocytosis assay was adapted for use with mature primary neuronal cultures grown for 3 weeks in vitro.
Compounds were added to neurons first, then oligomers were added.
Data were the average of 3 experiments. Scale bar=20 micron in FIG. 2D.

[2] = test system: Abeta oligomer-induced acceleration of exocytosis in primary neurons; test: Exocytosis assay/MTT assay (Example AA); type: cell-based; conditions: Rattus norvegicus, Primary neuron; 28 μM memantine, control; read-out: inhibition of oligomer effects
Description: Primary neurons from E18 Sprague-Dawley rat embryos are plated at optimized concentrations in 384 well plates in NB media (Invitrogen). Neurons are maintained in cultures for 3 weeks, with twice weekly feeding of NB media with N2 supplement (Invitrogen). A test compound is added to cells, followed by addition of Vehicle or Abeta oligomer preparations (1.5 μM), and incubated for 1 to 24 hr at 37° C. in 5% CO2. MTT reagent (3-(4,5-dimethylthiazol-2-yl)-2,5diphenyl tetrazolium bromide) (Roche Molecular Biochemicals) is reconstituted in phosphate buffered saline to 5 mg/mL. 10 μL of MTT labeling reagent is added to each well and incubated at 37° C. for 1 h, then imaged. […]
Optimal cell density is determined based on cellular response to Abeta oligomers using the exocytosis assay as a readout, and immunohistochemical analysis of the relative proportion of glia to neurons in the cultures. Cultures are monitored on a weekly basis with immunohistochemistry and image processing-based quantification to monitor the percentage of the cultures that are neurons vs. glia (Glial cells). […]
Human amyloid peptide 1-42 is obtained from California Peptide, with lot-choice contingent upon quality control analysis. […] Toxicity is monitored in each image-based assay via quantification of nuclear morphology visualized with the DNA binding dye DAPI (Invitrogen). […]

[3] = test system: Abeta oligomer-mediated memory deficits; test: Fear conditioning assay (Example FF); type: in vivo; conditions: mice
Description: CT0109 was tested in an animal model of a memory-dependent behavioral task known as fear conditioning. The study protocol was designed based on published protocols (See e.g. Puzzo D, Privitera L, Leznik E, FàM, Staniszewski A, Palmeri A, Arancio O. Picomolar amyloid-beta positively modulates synaptic plasticity and memory in hippocampus. J Neurosci. 2008 Dec. 31; 28(53):14537-45). The formation of contextual memories is dependent upon the integrity of medial temporal lobe structures such as the hippocampus. In this assay mice were trained to remember that a particular salient context (conditioned stimulus; CS) is associated with an aversive event, in this case a mild foot shock (the unconditioned stimulus, US). Animals that show good learning will express an increase in freezing behavior when placed back into the same context. This freezing is absent in a novel context. Increased freezing in the context indicates strong hippocampal-dependent memory formation in animals. Memory tested in Fear Conditioning is sensitive to elevations of soluble Aβ. […] The fear condition model for memory was performed as described herein.

## O[C@H]1[C@H](O)[C@@H](O)[C@H](O)[C@@H](O)[C@@H]1O [scyllo-inositol]
[1]
  block of Abeta oligomer effects (decrease of intracellular formazan-filled vesicles): none were active

## C[C@]12N[C@H](Cc3ccccc31)c1ccccc12 [MK-801]
[1]
  block of Abeta oligomer effects (decrease of intracellular formazan-filled vesicles): none were active

## CC12CC3CC(C)(C1)CC(N)(C3)C2 [Memantine, memantine]
[2]
  inhibition at 28 µM: 50%

## C[N+](C)(C)CCCCCC[N+](C)(C)C [hexamethonium bromide]
[1]
  block of Abeta oligomer effects (decrease of intracellular formazan-filled vesicles): none were active

## COc1cc(CCC(C)NCc2ccc(C(F)(F)F)cc2)ccc1O (stereo not drawn) [CT0109, 4-(3-(4-(trifluoromethyl)benzylamino)butyl)-2-methoxyphenol]
[1]; Rattus norvegicus, Neuron, FIG. 2B, read-out: EC50, inhibition of oligomer effects on membrane trafficking
  EC50: 7 µM
[3]; 2 pmol dose + Abeta (200 nM), FIG. 3 bar d, p<0.05
  block of oligomer-mediated memory deficits at 2 pmol dose: completely blocked
[3]; administered prior to Abeta oligomer administration, across doses
  block of oligomer effects on memory: blocked oligomer effects on memory in a dose-dependent manner
[3]; any dose
  adverse behavioral changes: No adverse behavioral changes
[3]; without Abeta, data not shown
  effect of compound alone on memory: No effect
